# Source: patent US7220758B2, “Ether substituted imidazopyridines” (3M Innovative Properties Company, priority 2002, dated 2007)
row,Compound,melting point
1,"CCc1nc2c(N)nc(C)c(C)c2n1CCOCCN1CCCS1(=O)=O [Example 106, 1-{2-[2-(1,1-Dioxidoisothiazolidin-2-yl)ethoxy]ethyl}-2-ethyl-6,7-dimethyl-1H-imidazo[4,5-c]pyridin-4-amine]",157 to 159 °C
2,"CCc1nc2c(N)nc(C)c(C)c2n1CCOCCNC(=O)NC(=O)c1ccccc1 [Example 107, N-{2-[2-(4-Amino-2-ethyl-6,7-dimethyl-1H-imidazo[4,5-c]pyridin-1-yl)ethoxy]ethyl}-N′-benzoylurea]",185 to 187 °C
3,"CCc1nc2c(N)nc(C)c(C)c2n1CCOCCNC(=O)NS(=O)(=O)c1ccccc1 [Example 108, N-[({2-[2-(4-Amino-2-ethyl-6,7-dimethyl-1H-imidazo[4,5-c]pyridin-1-yl)ethoxy]ethyl}amino)carbonyl]benzenesulfonamide]",201 to 203 °C
4,"CCOCc1nc2c(N)nc(C)c(C)c2n1CCOCc1ccncc1 [Example 109, 2-(Ethoxymethyl)-6,7-dimethyl-1-[2-(pyridin-4-ylmethoxy)ethyl]-1II-imidazo[4,5-c]pyridin-4-amine]",143 to 145 °C
5,"Cc1nc(N)c2nc(C)n(CCOCc3ccncc3)c2c1C [Example 110, 2,6,7-Trimethyl-1-[2-(pyridin-4-ylmethoxy)ethyl]-1H-imidazo[4,5-c]pyridin-4-amine]",208 to 210 °C
6,"CCOCc1nc2c(N)nc(C)c(C)c2n1CCOCC#Cc1cncnc1 [Example 111, 2-(Ethoxymethyl)-6,7-dimethyl-1-{2-[(3-pyrimidin-5-ylprop-2-ynyl)oxy]ethyl}-1H-imidazo[4,5-c]pyridin-4-amine]",122 to 124 °C
7,"CCOCc1nc2c(N)nc(C)c(C)c2n1CCOCCCc1cncnc1 [Example 112, 2-(Ethoxymethyl)-6,7-dimethyl-1-[2-(3-pyrimidin-5-ylpropoxy)ethyl]-1H-imidazo[4,5-c]pyridin-4-amine]",127 to 129 °C
8,"CCCc1nc2c(N)ncc(Br)c2n1CCOCCNS(C)(=O)=O [Example 113, N-{2-[2-(4-Amino-7-bromo-2-propyl-1H-imidazo[4,5-c]pyridin-1-yl)ethoxy]ethyl}methanesulfonamide]",129 to 131 °C
9,"CCCc1nc2c(N)ncc(Br)c2n1CCOCCN [Example 114, 1-[2-(2-Aminoethoxy)ethyl]-7-bromo-2-propyl-1H-imidazo[4,5-c]pyridin-4-amine]",114 to 117 °C
10,"CCCCNC(=O)c1ccc(S(=O)(=O)CCCn2c(CCC)nc3c(N)nc(C)c(C)c32)cc1 [Example 119, 4-[3-(4-Amino-6,7-dimethyl-2-propyl-1H-imidazo[4,5-c]pyridin-1-yl)propane-1-sulfonyl]-N-butylbenzamide]",147 to 149 °C
11,"CCCCN(C)C(=O)c1ccc(S(=O)(=O)CCCn2c(CCC)nc3c(N)nc(C)c(C)c32)cc1 [Example 120, 4-[3-(4-Amino-6,7-dimethyl-2-propyl-1H-imidazo[4,5-c]pyridin-1-yl)propane-1-sulfonyl]-N-butyl-N-methylbenzamide]",127 to 129 °C
12,"CCCc1nc2c(N)nc(Cl)c(C)c2n1CCOCCN [Example 121, 1-[2-(2-Aminoethoxy)ethyl]-6-chloro-7-methyl-2-propyl-1H-imidazo[4,5-c]pyridin-4-amine]",158 to 161 °C
13,"CCOCc1nc2c(N)nc(C)c(C)c2n1CCOCC#Cc1ccccc1 [Example 122, 2-Ethoxymethyl-6,7-dimethyl-1-{2-[(3-phenylprop-2-ynyl)oxy]ethyl}-1H-imidazo[4,5-c]pyridin-4-amine]",129 to 130 °C
14,"CCc1nc2c(N)nc(C)c(C)c2n1CCOCCN1CCCC1=O [Example 124, 1-{2-[2-(4-Amino-2-ethyl-6,7-dimethyl-1H-imidazo[4,5-c]pyridin-1-yl)ethoxy]ethyl}pyrrolindin-2-one]",128 to 130 °C
15,"CCCc1nc2c(N)nc(Cl)c(C)c2n1CCOCCNC(=O)c1ccccc1 [Example 125, N-{2-[2-(4-Amino-6-chloro-7-methyl-2-propyl-1H-imidazo[4,5-c]pyridin-4-yl)ethoxy]ethyl}benzamide]",188 to 189 °C
